Target: human PCSK9 (Homo sapiens, UniProt Q8NBP7)
Assay: PCSK9 ligand binding assay (TR-FRET): interference with binding of human PCSK9 to human LDLR
Settings: for IC50: Human PCSK9 Alexa Fluor 647 / Human LDLR extracellular domain-Europium Kryptate; for Max % inhibition: efficacy (Amax), 100% = 1 uM unlabeled human PCSK9, 0% = DMSO
Method: Example 10: PCSK9 Ligand Binding Assay
The PCSK9 binding of the compounds of the disclosure were measured using a time resolved fluorescence resonance energy transfer (TR-FRET) assay. This time resolved fluorescence resonance energy transfer (TR-FRET) assay measures the ability of a compound of the present disclosure to interfere with the binding of human PCSK9 to human LDLR, providing measures of both potency (IC50) and efficacy (Amax).
Human PCSK9 Alexa Fluor 647
Human LDLR extracellular domain-Europium Kryptate
Proxi plate-low volume assay plate (PerkinElmer #6008280)
Greiner V-bottom (Greiner BioOne #781280)
Assay Buffer • 20 mM HEPES, pH 7.5 • 150 mM NaCl • 1 mM CaCl2 • 0.01% v/v Tween20 • 0.01% w/v BSA
A master compound plate was prepared in a Greiner V bottom plate by diluting compounds of the disclosure in dimethylsulfoxide to the correct concentration for the desired top concentration based on the desired final concentration: for a 30 uM final concentration the master plate concentration is 1.5 mM (68 uL DMSO+12 uL 10 mM of a compound of the disclosure), for a 10 uM final concentration the master plate concentration is 0.5 mM (76 uL DMSO+4 uL 10 mM of a compound of the disclosure), for a 3 uM final concentration the master plate concentration is 150 uM (69 uL DMSO+1 uL 10 mM of a compound of the disclosure). These solutions were pipetted into columns 1 and 11 of the compound plate. Threefold serial dilutions were generated in columns 2-10 and 12-20 of the compound plate by transferring 10 uL into 20 uL of DMSO. Columns 21 and 22 of the compound plate were negative controls containing DMSO alone.
An intermediate plate was generated in a Greiner V bottom plate by transferring 8 uL from each well of the master plate into a corresponding well containing 92 uL of assay buffer and mixing thoroughly.
A Proxi plate-low volume assay plate was used for the assay. To all wells of the plate was added 10 uL of 16 nM Human PCSK9 Alexa Fluor 647, followed by 5 uL from the intermediate plate. For the positive control wells in columns 23 and 24 of the plate, 5 uL of unlabeled human PCSK9 was added at 4 uM in assay buffer containing 8% DMSO. Following a 30 minute incubation, 5 uL of 4 nM Human LDLR extracellular domain-Europium Kryptate was added and the mixture was incubated for an additional 2 hours.
The TR-FRET signal was measured on an EnVision or PheraStar instrument with a 60 ms delay, 330 nm excitation and 665 nm emission (FRET), and 330 nm excitation and 615 nm (Europium). The FRET ratio (FRET/Europium) was used for calculations.
No inhibition (0%) was observed from the wells containing DMSO (Control) in columns 21 and 22 of the compound plate. Full inhibition (100%) was observed from the wells containing 1 uM human PCSK9 (Control) in columns 23 and 24 of the plate. Data is expressed as percent inhibition: (value—0%)/(100%-0%).

human PCSK9, sequence (Q8NBP7 153-692): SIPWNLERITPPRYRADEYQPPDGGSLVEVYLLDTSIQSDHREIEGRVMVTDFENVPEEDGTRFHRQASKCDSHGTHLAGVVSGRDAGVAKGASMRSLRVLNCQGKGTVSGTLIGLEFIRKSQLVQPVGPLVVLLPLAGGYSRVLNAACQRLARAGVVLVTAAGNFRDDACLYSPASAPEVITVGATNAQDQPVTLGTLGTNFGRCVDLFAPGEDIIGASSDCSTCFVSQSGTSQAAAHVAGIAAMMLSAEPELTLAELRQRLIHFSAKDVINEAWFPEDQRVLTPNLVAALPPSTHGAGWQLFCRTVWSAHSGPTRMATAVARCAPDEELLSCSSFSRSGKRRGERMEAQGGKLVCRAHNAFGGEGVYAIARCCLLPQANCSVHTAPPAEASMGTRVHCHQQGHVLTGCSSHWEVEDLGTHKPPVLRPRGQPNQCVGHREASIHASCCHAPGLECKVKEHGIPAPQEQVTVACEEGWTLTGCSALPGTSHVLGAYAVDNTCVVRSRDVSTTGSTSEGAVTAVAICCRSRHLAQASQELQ
human PCSK9, sequence (Q8NBP7 31-152 partner limits assumed): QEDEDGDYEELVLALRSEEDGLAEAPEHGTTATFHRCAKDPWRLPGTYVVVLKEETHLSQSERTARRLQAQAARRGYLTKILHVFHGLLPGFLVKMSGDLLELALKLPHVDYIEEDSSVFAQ

| Structure (SMILES) | IC50 | Max % inhibition |
| --- | --- | --- |
| COC[C@@H]1NC(=O)[C@H](C)N(Cc2ccc(Cl)cc2Oc2ccc(-c3cnc(CN(C)C)n3C)nc2)C(=O)C[C@@H](CC(F)(F)F)C(=O)N2CCC[C@@](Cc3ccc(Cl)cc3)(C2)N(C)C1=O [Compound 12, (3S, 7S, 10S, 13R)-6-(4-chloro-2-((6-(2-((dimethylamino)methyl)-1-methyl-1H-imidazol-5-yl)pyridin-3-yl)oxy)benzyl)-13-(4-chlorobenzyl)-10-(methoxymethyl)-7,12-dimethyl-3-(2,2,2-trifluoroethyl)-1,6,9,12-tetraazabicyclo[11.3.1]heptadecane-2,5,8,11-tetraone] | 0.152 nM | 112.8% |
| C[C@H]1C(=O)N[C@@H](CO)C(=O)N[C@@]2(Cc3ccc(Cl)cc3)CCCN(C2)C(=O)[C@H]([C@H]2CCc3ncccc32)CC(=O)N1Cc1ccc(Cl)cc1Oc1ccc(-c2cnc(CN(C)C)n2C)cc1.Cl [Compound 16, (3S, 7S, 10S, 13R)-6-(4-chloro-2-(4-(2-((dimethylamino)methyl)-1-methyl-1H-imidazol-5-yl)phenoxy)benzyl)-13-(4-chlorobenzyl)-3-((R)-6,7-dihydro-5H-cyclopenta[b]pyridin-5-yl)-10-(hydroxymethyl)-7-methyl-1,6,9,12-tetraazabicyclo[11.3.1]heptadecane-2,5,8,11-tetraone] | 0.529 nM | 97.5% |
| COC[C@@H]1NC(=O)[C@H](C)N(Cc2ncc(Cl)cc2Oc2ccc(-c3cnc(CN(C)C)n3C)cc2)C(=O)C[C@@H](Cc2ccccc2)C(=O)N2CCC[C@@](Cc3ccc(Cl)cc3)(C2)NC1=O [Compound 17, (3R, 7S, 10S, 13R)-3-benzyl-6-((5-chloro-3-(4-(2-((dimethylamino)methyl)-1-methyl-1H-imidazol-5-yl)phenoxy)pyridin-2-yl)methyl)-13-(4-chlorobenzyl)-10-(methoxymethyl)-7-methyl-1,6,9,12-tetraazabicyclo[11.3.1]heptadecane-2,5,8,11-tetraone] | 0.327 nM | 102.6% |
| C[C@H]1C(=O)N[C@@H](CO)C(=O)N(C)[C@@]2(Cc3ccc(Cl)cc3)CCCN(C2)C(=O)[C@H](Cc2ccccn2)CC(=O)N1Cc1ccc(Cl)cc1Oc1ccc(-c2cnc(CN(C)C)n2C)cc1 [Compound 18, (3R,7S,10S,13R)-6-(4-Chloro-2-(4-(2-((dimethylamino)methyl)-1-methyl-1H-imidazol-5-yl)phenoxy)benzyl)-13-(4-chlorobenzyl)-10-(hydroxymethyl)-7,12-dimethyl-3-(pyridin-2-ylmethyl)-1,6,9,12-tetraazabicyclo[11.3.1]heptadecane-2,5,8,11-tetraone] | 0.549 nM | 104.5% |
| C[C@H]1C(=O)N[C@@H](CO)C(=O)N[C@@]2(Cc3ccc(Cl)cc3)CCCN(C2)C(=O)[C@H](Cc2cccnc2)CC(=O)N1Cc1ccc(Cl)cc1Oc1ccc(-c2cnc(CN(C)C)n2C)cc1.Cl [Compound 19, (3R,7S,10S,13R)-6-(4-chloro-2-(4-(2-((dimethylamino)methyl)-1-methyl-1H-imidazol-5-yl)phenoxy)benzyl)-13-(4-chlorobenzyl)-10-(hydroxymethyl)-7-methyl-3-(pyridin-3-ylmethyl)-1,6,9,12-tetraazabicyclo[11.3.1]heptadecane-2,5,8,11-tetraone hydrochloride] | 0.45 nM | 105.3% |
| C[C@H]1C(=O)N[C@@H](CO)C(=O)N(C)[C@@]2(Cc3ccc(Cl)cc3)CCCN(C2)C(=O)[C@H](CC(F)(F)F)CC(=O)N1Cc1ccc(Cl)cc1Oc1ccc(-c2cnc(CN(C)C)n2C)cc1 [Compound 20, (3S, 7S, 10S, 13R)-6-(4-chloro-2-(4-(2-((dimethylamino)methyl)-1-methyl-1H-imidazol-5-yl)phenoxy)benzyl)-13-(4-chlorobenzyl)-10-(hydroxymethyl)-7,12-dimethyl-3-(2,2,2-trifluoroethyl)-1,6,9,12-tetraazabicyclo[11.3.1]heptadecane-2,5,8,11-tetraone] | 0.187 nM | 117.5% |
| COC[C@@H]1NC(=O)[C@H](C)N(Cc2ccc(Cl)cc2Oc2ccc(-c3cnc(CN(C)C)n3C)cc2)C(=O)C[C@@H](Cc2ccccn2)C(=O)N2CCC[C@@](Cc3ccc(Cl)cc3)(C2)NC1=O [Compound 21, (3R,7S,10S,13R)-6-(4-Chloro-2-(4-(2-((dimethylamino)methyl)-1-methyl-1H-imidazol-5-yl)phenoxy)benzyl)-13-(4-chlorobenzyl)-10-(methoxymethyl)-7-methyl-3-(pyridin-2-ylmethyl)-1,6,9,12-tetraazabicyclo[11.3.1]heptadecane-2,5,8,11-tetraone] | 0.47 nM | 107.0% |
| COC[C@@H]1NC(=O)[C@H](C)N(Cc2ccc(Cl)cc2Oc2ccc(-c3cnc(CN(C)C)n3C)cc2)C(=O)C[C@@H](Cc2cccnc2)C(=O)N2CCC[C@@](Cc3ccc(Cl)cc3)(C2)NC1=O.Cl [Compound 23, (3R, 7S, 10S, 13R)-6-(4-chloro-2-(4-(2-((dimethylamino)methyl)-1-methyl-1H-imidazol-5-yl)phenoxy)benzyl)-13-(4-chlorobenzyl)-10-(methoxymethyl)-7-methyl-3-(pyridin-3-ylmethyl)-1,6,9,12-tetraazabicyclo[11.3.1]heptadecane-2,5,8,11-tetraone] | 0.463 nM | 109.3% |
| C[C@H]1C(=O)N[C@@H](CO)C(=O)N[C@@]2(Cc3ccc(Cl)cc3)CCCN(C2)C(=O)[C@H](Cc2ccccc2)CC(=O)N1Cc1ccc(Cl)c(F)c1Oc1ccc(-c2cnc(CN(C)C)n2C)cc1 [Compound 25, (3R, 7S, 10S, 13R)-3-benzyl-6-(4-chloro-2-(4-(2-((dimethylamino)methyl)-1-methyl-1H-imidazol-5-yl)phenoxy)-3-fluorobenzyl)-13-(4-chlorobenzyl)-10-(hydroxymethyl)-7-methyl-1,6,9,12-tetraazabicyclo[11.3.1]heptadecane-2,5,8,11-tetraone] | 0.438 nM | 100.8% |

Next, values leading:

| IC50 | Max % inhibition | Structure (SMILES) |
| --- | --- | --- |
| 0.632 nM | 102.7% | COC[C@@H]1NC(=O)[C@H](C)N(Cc2c(F)cc(Cl)cc2Oc2ccc(-c3cnc(CN4CCCC4)n3C)cc2)C(=O)C[C@@H](Cc2cccc(C)n2)C(=O)N2CCC[C@@](Cc3ccc(Cl)cc3)(C2)N(C)C1=O [Compound 14] |
| 0.342 nM | 119.0% | C[C@H]1C(=O)N[C@@H](CO)C(=O)N[C@@]2(Cc3ccc(Cl)cc3)CCCN(C2)C(=O)[C@H](CC(F)(F)F)CC(=O)N1Cc1c(F)cc(Cl)cc1Oc1ccc(-c2cnc(CN3CCCC3)n2C)cc1 [Compound 15, (3S, 7S, 10S, 13R)-6-(4-chloro-2-fluoro-6-(4-(1-methyl-2-(pyrrolidin-1-ylmethyl)-1H-imidazol-5-yl)phenoxy)benzyl)-13-(4-chlorobenzyl)-10-(hydroxymethyl)-7-methyl-3-(2,2,2-trifluoroethyl)-1,6,9,12-tetraazabicyclo[11.3.1]heptadecane-2,5,8,11-tetraone] |
| 0.159 nM | 101.9% | COC[C@@H]1NC(=O)[C@H](C)N(Cc2c(F)cc(Cl)cc2Oc2ccc(-c3cnc(CN(C)C)n3C)cc2)C(=O)C[C@@H](CC(F)(F)F)C(=O)N2CCC[C@@](Cc3ccc(Cl)cc3)(C2)N(C)C1=O [Compound 22, (3S,7S,10S,13R)-6-(4-Chloro-2-(4-(2-((dimethylamino)methyl)-1-methyl-1H-imidazol-5-yl)phenoxy)-6-fluorobenzyl)-13-(4-chlorobenzyl)-10-(methoxymethyl)-7,12-dimethyl-3-(2,2,2-trifluoroethyl)-1,6,9,12-tetraazabicyclo[11.3.1]heptadecane-2,5,8,11-tetraone] |
| 0.277 nM | 115.7% | COC[C@@H]1NC(=O)[C@H](C)N(Cc2ccc(Cl)cc2Oc2ccc(-c3cnc(CN(C)C)n3C)nc2)C(=O)C[C@@H](Cc2cccc(C)n2)C(=O)N2CCC[C@@](Cc3ccc(Cl)cc3)(C2)N(C)C1=O [Compound 24, (3R, 7S, 10S, 13R)-6-(4-chloro-2-((6-(2-((dimethylamino)methyl)-1-methyl-1H-imidazol-5-yl)pyridin-3-yl)oxy)benzyl)-13-(4-chlorobenzyl)-10-(methoxymethyl)-7,12-dimethyl-3-((6-methylpyridin-2-yl)methyl)-1,6,9,12-tetraazabicyclo[11.3.1]heptadecane-2,5,8,11-tetraone] |

From patent US11813306B2, “Cyclic tetramer compounds as proprotein convertase subtilisin/kexin type 9 (PCSK9) inhibitors for the treatment of metabolic disorders” (NOVARTIS AG, priority 2018, dated 2023)
